Tests used:
SAC1 [1] = molecular target: T1, SAC1 (Mus musculus, UniProt Q9EPK8); test: Fluorescence measurement (fura-2) of SAC1 expression cells under touch stress; format: cell-based; conditions: SAC1 expression CHO cells (GFP positive), touched by glass pipette, added Gd^3+; no added Gd^3+ gave 12.8 ± 1.4, control cells 4.5 ± 3.8
T1 construct: the region containing the full length was amplified by PCR using primer set (A13st1 and mA13end1); expressed in transfected cells; host or cells: CHO cells, transient co-transfection of SAC1 in pCMV-SPORT with pEGFP-N1 as a separate marker plasmid
T1 sequence (Q9EPK8 whole entry): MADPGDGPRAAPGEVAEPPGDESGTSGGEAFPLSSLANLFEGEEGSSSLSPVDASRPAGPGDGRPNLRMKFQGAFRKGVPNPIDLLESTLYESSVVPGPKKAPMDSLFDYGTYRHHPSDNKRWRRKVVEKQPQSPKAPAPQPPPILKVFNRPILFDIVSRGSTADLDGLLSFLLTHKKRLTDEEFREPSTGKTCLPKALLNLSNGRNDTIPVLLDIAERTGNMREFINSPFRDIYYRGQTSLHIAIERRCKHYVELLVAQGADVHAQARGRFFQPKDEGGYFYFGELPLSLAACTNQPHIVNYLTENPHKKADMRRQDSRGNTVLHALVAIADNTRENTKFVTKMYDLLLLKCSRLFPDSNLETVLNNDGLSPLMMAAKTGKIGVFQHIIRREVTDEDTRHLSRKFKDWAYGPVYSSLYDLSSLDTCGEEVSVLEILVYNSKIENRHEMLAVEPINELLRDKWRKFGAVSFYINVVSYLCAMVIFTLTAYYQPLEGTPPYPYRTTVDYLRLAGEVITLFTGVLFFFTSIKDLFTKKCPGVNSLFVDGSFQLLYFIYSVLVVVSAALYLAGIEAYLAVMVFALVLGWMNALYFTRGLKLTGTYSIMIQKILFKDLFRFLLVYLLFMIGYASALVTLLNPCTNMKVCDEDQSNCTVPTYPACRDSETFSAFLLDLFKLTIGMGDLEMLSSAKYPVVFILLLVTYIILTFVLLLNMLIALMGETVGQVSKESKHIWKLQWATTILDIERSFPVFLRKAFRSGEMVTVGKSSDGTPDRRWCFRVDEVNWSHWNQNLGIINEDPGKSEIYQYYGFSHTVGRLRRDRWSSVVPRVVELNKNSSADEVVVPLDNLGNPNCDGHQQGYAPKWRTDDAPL
Protocol: (§1) The plasmid (pEGFP-N1; Clonetech Co.) expressing a green fluorescent protein was used as a marker for transfection. For the transient expression of protein, CHO cells were cultured in a HamF-12 culture medium (Gibco-BRL Co.) supplemented with 10% fetal bovine serum, 100 U/ml penicillin, and 100 μg/ml streptomycin. On the day before transformation, CHO cells (10^5 cells) were seeded to a 35 mm dish in which a cover slip coated with rat tail collagen was placed. On the next day, SAC1 plasmid (1 μg) in PCMV-SPORT (Gibco-BRL Co.) and pEGFP-N1 (1 μg) were added per one transfection to a mixture of serum-free medium (97 μl) and FuGENE6 (Roche, 3 μl) which had been incubated for 5 minutes at room temperature. […] The electrophysiological test was started after 24 hours and the fluorescence measurement was carried out 48 hours after the transfection.
For 2-3 hours prior to start of the test, the transformed cells were incubated with 10 μM fura-2AM (Dojin Co.) dissolved in a serum-free culture medium. GFP fluorescence at 480 nm and fura-2 fluorescence at 360/380 nm were visualized by a manual exchange of dichroic Olympus system mirrors (Merlin Co.). Images for the fluorescence at 480 nm and fluorescence at 360/380 nm were obtained every two seconds. The fluorescence intensity of the objective area was calculated for analysis. […]

SAC1 [2] = molecular target: T1, SAC1; test: Single channel analysis (patch clamp) of SAC1 expression cells under negative pressure; format: cell-based
Protocol: as §1, with “placed.” for “placed. On the next day, SAC1 plasmid (1 μg) in PCMV-SPORT (Gibco-BRL Co.) and pEGFP-N1 (1 μg) were added per one transfection to a mixture of serum-free medium (97 μl) and FuGENE6 (Roche, 3 μl) which had been incubated for 5 minutes at room temperature.”
Patch clamp recordings were carried out according to the method described in a previous paper (Suzuki, M., Sato, J., Kutsuwada, K., Ooki, G. and Imai, M. (1999) J. Biol. Chem. 274, 6330-5). GFP positive cells were visualized by a fluorescence measurement with an emission of 490 nm (CAM 2000 system; Jusco Co., Ltd.). […] In single channel analysis, the current was recorded with an EPC-7 patch clamp amplifier (List-Electronic Co., Ltd.) and stored on a DAT recorder (DAT-200; Sony Corp.) at 10 KHz. […] The data were analyzed using Igor ver. […] To analyze the open probability in the presence of GdCl3, single channel amplitude was set for those without reagent and the mean open probability (Po) was determined by the records during 10 seconds. […]

SMILES: [Cl][Gd]([Cl])[Cl] [Gd^3+, GdCl3]
- change of the fura-2 fluorescence ratio (360 nm/380 nm) on mechanical stimulus (SAC1 [1]): 4.8 ± 1.4 (10)
- response (mean open probability Po) to negative pressure (SAC1 [2]; 0.5 μM GdCl3 added to the pipette, cell-attached, FIG. 3C): not affected
- effect on single channel activated by negative pressure (SAC1 [2]; transformed cells that express SAC1): blocked

Source: patent US20030073117A1, “Novel protein and gene encoding the protein” (Daiichi Pharmaceutical Co., Ltd., priority 2000, published 2003)
